This note sets out measurements from ChEMBL document CHEMBL5678818, “Discovery of potent SOS1 inhibitors that block RAS activation via disruption of the RAS-SOS1 interaction” (Proc Natl Acad Sci U S A, 2019).

One experiment is filed under the species Homo sapiens. As to the kind of experiment: Inhibition of N-terminal GST-tagged recombinant human SOS1 S876K mutant (564 to 1049 residues) expressed in Escherichia coli assessed as reduction in KRAS G12C mutant activation at 10 uM by HTRF analysis relative to control. (TR-FRET usually uses a lanthanide donor and a delayed reading to cut background.)
Experiment [1] deals with Casein kinase I isoform gamma-2 (Homo sapiens) (UniProt P78368). Nature of the experiment: Inhibition of CSNK1G2 (unknown origin) assessed as residual activity at 100 nM by KINOMEscan analysis relative to control.
Casein kinase I isoform gamma-2 (Homo sapiens), sequence (P78368 whole entry, looked up, canonical isoform): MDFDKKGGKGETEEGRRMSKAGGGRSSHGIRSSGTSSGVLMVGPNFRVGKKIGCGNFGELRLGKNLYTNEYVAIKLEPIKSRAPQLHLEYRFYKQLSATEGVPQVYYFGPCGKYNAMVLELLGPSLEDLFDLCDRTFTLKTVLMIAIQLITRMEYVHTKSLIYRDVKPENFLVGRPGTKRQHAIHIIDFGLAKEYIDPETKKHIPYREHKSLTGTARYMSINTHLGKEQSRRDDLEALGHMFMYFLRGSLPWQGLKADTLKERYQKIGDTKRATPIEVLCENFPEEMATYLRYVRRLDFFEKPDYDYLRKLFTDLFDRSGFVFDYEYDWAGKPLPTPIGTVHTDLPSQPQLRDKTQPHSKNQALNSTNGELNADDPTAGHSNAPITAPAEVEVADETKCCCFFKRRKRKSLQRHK
The target in experiment [2] is T1, MAP/microtubule affinity-regulating kinase 4 (Homo sapiens) (UniProt Q96L34).
T1 sequence (whole entry): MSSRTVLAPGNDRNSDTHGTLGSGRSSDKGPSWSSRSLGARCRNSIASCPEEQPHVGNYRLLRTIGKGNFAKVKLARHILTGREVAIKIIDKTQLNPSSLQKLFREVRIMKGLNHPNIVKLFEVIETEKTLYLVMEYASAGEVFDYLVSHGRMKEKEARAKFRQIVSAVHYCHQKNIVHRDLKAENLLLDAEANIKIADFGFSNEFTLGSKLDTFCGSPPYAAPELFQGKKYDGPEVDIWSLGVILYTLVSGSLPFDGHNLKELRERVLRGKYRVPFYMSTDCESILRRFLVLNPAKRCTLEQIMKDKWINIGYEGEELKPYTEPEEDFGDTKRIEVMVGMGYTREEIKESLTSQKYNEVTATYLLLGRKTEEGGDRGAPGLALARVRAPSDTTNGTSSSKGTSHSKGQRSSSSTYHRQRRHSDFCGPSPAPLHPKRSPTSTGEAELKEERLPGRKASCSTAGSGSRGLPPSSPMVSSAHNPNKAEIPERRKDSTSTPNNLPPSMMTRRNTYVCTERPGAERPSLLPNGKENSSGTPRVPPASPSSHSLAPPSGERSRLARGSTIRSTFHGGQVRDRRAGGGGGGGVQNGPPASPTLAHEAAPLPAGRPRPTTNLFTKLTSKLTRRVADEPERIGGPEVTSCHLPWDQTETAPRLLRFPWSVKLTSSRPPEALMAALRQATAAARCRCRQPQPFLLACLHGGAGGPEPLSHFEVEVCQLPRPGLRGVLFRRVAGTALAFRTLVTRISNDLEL
Nature of the experiment: Inhibition of MARK4 (unknown origin) assessed as residual activity at 100 nM by KINOMEscan analysis relative to control.

In experiment [3] the target is T2, Ephrin type-A receptor 8 (Homo sapiens) (UniProt P29322).
T2 sequence (whole entry): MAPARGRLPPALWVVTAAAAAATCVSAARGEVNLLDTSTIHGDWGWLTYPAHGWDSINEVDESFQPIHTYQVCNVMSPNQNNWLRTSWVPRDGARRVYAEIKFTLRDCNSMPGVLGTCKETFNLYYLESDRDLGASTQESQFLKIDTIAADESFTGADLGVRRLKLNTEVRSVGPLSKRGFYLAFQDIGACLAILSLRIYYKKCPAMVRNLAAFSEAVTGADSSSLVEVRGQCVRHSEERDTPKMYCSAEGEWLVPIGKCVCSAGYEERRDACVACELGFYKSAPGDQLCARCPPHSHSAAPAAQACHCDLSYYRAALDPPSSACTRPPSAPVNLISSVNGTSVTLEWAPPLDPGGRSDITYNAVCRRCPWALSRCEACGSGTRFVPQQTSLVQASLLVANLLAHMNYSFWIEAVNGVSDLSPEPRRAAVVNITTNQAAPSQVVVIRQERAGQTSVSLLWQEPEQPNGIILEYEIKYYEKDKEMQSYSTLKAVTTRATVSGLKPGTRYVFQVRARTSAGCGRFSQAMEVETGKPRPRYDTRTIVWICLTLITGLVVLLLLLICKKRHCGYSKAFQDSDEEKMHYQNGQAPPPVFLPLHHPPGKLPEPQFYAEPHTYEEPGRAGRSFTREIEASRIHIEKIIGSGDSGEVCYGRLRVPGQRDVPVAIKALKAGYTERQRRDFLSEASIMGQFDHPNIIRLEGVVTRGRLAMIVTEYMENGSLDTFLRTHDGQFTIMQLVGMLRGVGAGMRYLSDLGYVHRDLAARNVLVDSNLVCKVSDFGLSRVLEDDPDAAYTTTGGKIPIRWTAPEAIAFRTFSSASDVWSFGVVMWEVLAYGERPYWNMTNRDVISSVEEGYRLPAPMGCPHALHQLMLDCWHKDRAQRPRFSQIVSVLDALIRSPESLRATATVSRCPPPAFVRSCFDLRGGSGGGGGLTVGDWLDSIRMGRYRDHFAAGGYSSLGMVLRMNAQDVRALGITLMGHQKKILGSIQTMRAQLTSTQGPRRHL
Nature of the experiment: Inhibition of EPHA8 (unknown origin) assessed as residual activity at 100 nM by KINOMEscan analysis relative to control.

In experiment [4] the target is Activin receptor type-2B (Homo sapiens) (UniProt Q13705). As to the kind of experiment: Inhibition of ACVR2B (unknown origin) assessed as residual activity at 100 nM by KINOMEscan analysis relative to control.
Activin receptor type-2B (Homo sapiens), sequence (Q13705 whole entry, canonical isoform): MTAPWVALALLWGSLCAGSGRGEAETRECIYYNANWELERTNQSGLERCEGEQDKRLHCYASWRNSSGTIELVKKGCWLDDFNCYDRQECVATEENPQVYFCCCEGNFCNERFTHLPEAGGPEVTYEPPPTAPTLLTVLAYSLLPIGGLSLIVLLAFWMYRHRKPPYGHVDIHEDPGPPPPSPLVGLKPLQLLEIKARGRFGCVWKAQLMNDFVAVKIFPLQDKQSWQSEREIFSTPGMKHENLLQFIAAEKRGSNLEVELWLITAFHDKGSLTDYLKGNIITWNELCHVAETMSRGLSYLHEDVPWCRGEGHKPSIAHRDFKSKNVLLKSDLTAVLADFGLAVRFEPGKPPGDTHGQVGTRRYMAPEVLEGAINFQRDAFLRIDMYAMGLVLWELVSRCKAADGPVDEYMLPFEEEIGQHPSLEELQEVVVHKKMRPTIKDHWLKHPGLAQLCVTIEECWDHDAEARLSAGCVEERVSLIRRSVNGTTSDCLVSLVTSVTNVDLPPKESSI
Experiment [5] addresses T3, Phosphorylase b kinase gamma catalytic chain, liver/testis isoform (Homo sapiens) (UniProt P15735).
T3 sequence (whole entry): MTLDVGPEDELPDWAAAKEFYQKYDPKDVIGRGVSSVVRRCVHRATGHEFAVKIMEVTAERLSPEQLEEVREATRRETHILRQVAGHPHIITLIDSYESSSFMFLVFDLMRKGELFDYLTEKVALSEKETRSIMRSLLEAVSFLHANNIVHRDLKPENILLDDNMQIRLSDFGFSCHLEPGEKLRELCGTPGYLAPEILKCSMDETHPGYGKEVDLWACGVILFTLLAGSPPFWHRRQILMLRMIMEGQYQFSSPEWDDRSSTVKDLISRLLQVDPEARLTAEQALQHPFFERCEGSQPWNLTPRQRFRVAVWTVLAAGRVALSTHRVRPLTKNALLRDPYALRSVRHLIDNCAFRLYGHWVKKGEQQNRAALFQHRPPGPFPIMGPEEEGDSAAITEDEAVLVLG
As to the kind of experiment: Inhibition of PHKG2 (unknown origin) assessed as residual activity at 100 nM by KINOMEscan analysis relative to control.

Experiment [6] has as its target T4, Serine/threonine-protein kinase 17B (Homo sapiens) (UniProt O94768).
T4 sequence (whole entry): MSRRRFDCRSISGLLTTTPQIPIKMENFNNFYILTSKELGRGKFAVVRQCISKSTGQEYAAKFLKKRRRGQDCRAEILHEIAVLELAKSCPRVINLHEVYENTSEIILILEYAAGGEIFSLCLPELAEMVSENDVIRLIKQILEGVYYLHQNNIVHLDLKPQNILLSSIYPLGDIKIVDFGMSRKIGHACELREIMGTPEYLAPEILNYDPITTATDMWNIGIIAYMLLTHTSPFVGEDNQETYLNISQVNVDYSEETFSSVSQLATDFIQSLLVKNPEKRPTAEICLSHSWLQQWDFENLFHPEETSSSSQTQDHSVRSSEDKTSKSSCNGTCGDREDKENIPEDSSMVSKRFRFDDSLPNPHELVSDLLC
As to the kind of experiment: Inhibition of DRAK2 (unknown origin) assessed as residual activity at 100 nM by KINOMEscan analysis relative to control.

A word on the inhibition: it is the change of the read-out against control, counted positive when it falls. As to `COc1cc2ncnc(N[C@H](C)c3cccc4ccccc34)c2cc1OC`, the inhibition in the experiment listed under Homo sapiens was determined as 102%. The Activity in experiment [1] came out at 91%; in experiment [2], 97%; in experiment [3], 75%; in experiment [4], 91%; in experiment [5] it was 100%; in experiment [6], 100%.
